Reference: patent publication US4347319A, “Microbiological epoxidation process” (priority 1980, dated 1982)

Key:
[1] = system: cell extract of Kloeckera sp. strain A2 NRRL-Y-11,420; test: Oxidation of secondary alcohols to methylketone by cell extracts of yeasts; format: biochemical; conditions: methanol-grown; cell extract + NAD^+; sec. alcohol to methyl ketone; gas chromatography
[2] = system: Torulopsis sp. Strain A1 (NRRLY-11,419); test: Oxidation of sec-alcohols to ketones by cell suspensions of yeasts; format: cell-based; conditions: sec-alcohol to methyl ketone
[3] = system: Methylococcus capsulatus (CRL M1) NRRL B-11,219; test: Oxidation by washed cell suspensions of methane-grown cells; format: cell-based; conditions: methane-grown cells; isopropanol to acetone, 2-butanol to 2-butanone
How it was run: (§1)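 Products were quantified by gas chromatography (flame ionization) in headspace/liquid samples taken periodically from sealed vials. Each vial held 2 mg washed methane-grown cells in 0.15 M phosphate pH 7.0 under a 1:1 substrate/oxygen gas phase, shaken at 30 °C.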

[4] = system: Methylosinus trichosporium (CRL 15 PM1) NRRL B-11,202; test: as above; format: cell-based; conditions: methane-grown cells; isopropanol to acetone, 2-butanol to 2-butanone
How it was run: as §1

[5] = system: Methylobacterium organophilum (CRL 26 R6) NRRL B-11,222; test: as above; format: cell-based; conditions: methane-grown cells; isopropanol to acetone, 2-butanol to 2-butanone
How it was run: as §1

[6] = system: Methylobacter chroococcum (CRL M6) NRRL B-11,214; test: as above; format: cell-based; conditions: methane-grown cells; isopropanol to acetone, 2-butanol to 2-butanone
How it was run: as §1

[7] = system: Methylomonas rubrum (CRL M6P) NRRL B-11,210; test: as above; format: cell-based; conditions: methane-grown cells; isopropanol to acetone
How it was run: as §1

Pichia sp. NRRL-Y-11328 = test: Oxidation of sec-alcohols to ketones by cell suspensions of yeasts; format: cell-based; conditions: sec-alcohol to methyl ketone
[8] = system: purified secondary alcohol dehydrogenase (SADH) from Pseudomonas sp. ATCC 21439; test: Kinetics and substrate specificity of purified SADH; format: biochemical; conditions: 2-butanol = 100%
[9] = system: purified secondary alcohol dehydrogenase from Pichia sp. NRRL Y-11,328; test: Substrate specificity, electron acceptor and stoichiometry of purified yeast SADH; format: biochemical; conditions: examined spectrophotometrically
[10] = system: cell extract of Pichia sp. NRRL-Y-11,328; test: Oxidation of secondary alcohols to methylketone by cell extracts of yeasts; format: biochemical; conditions: methanol-grown; cell extract + NAD^+; sec. alcohol to methyl ketone; gas chromatography
[11] = system: Candida utilis ATCC 26387; test: Oxidation of sec-alcohols to ketones by cell suspensions of yeasts; format: cell-based; conditions: sec-alcohol to methyl ketone
[12] = system: Hansenula polymorpha ATCC 26012; test: as above; format: cell-based; conditions: sec-alcohol to methyl ketone
[13] = system: cell extract of Candida utilis ATCC 26,387; test: Oxidation of secondary alcohols to methylketone by cell extracts of yeasts; format: biochemical; conditions: methanol-grown; cell extract + NAD^+; sec. alcohol to methyl ketone; gas chromatography
[14] = system: cell extract of Torulopsis sp. strain A1 NRRL-Y-11,419; test: as above; format: biochemical; conditions: methanol-grown; cell extract + NAD^+; sec. alcohol to methyl ketone; gas chromatography
[15] = system: Methylobacter vinelandii CRL M5Y NRRL B-11,218; test: Sec. alcohol oxidation by cell suspensions of methanol-grown cells; format: cell-based; conditions: sec. alcohol to methyl ketone
Source text: (§2) In this example, the procedure of Example 1 was repeated except that a plurality of the methane-utilizing methylotrophic microorganisms of the invention were each aerobically grown in a methanol-containing nutrient medium instead of a methane-containing medium. The nutrients in the medium were the same as indicated in Example 1 except that 0.4% v/v methanol was used as the alcohol dehydrogenase enzyme inducer and major source of carbon and energy for growth. Following growth the cells were harvested and washed as described in Example 1. The resting cells of the induced methanol-grown methylotrophic microorganisms were then contacted with a […] under aerobic conditions in a buffered solution by the procedure described in Example 1.

[16] = system: Methylococcus capsulatus CRL M1 NRRL B-11,219; test: as above; format: cell-based; conditions: sec. alcohol to methyl ketone
Source text: as §2

[17] = system: Methylobacter chroococcum CRL M6 NRRL B-11,214; test: as above; format: cell-based; conditions: sec. alcohol to methyl ketone
Source text: as §2

[18] = system: Methylocystis parvus CRL 18 NRRL B-11,204; test: as above; format: cell-based; conditions: sec. alcohol to methyl ketone
Source text: as §2

[19] = system: Methylobacterium organophilum CRL 26 NRRL B-11,222; test: as above; format: cell-based; conditions: sec. alcohol to methyl ketone
Source text: as §2

[20] = system: Methylococcus capsulatus CRL 25 NRRL B-11,221; test: as above; format: cell-based; conditions: sec. alcohol to methyl ketone
Source text: as §2

[21] = system: Methylomonas streptobacterium CRL 17 PM3 NRRL B-11,208; test: as above; format: cell-based; conditions: sec. alcohol to methyl ketone
Source text: as §2

[22] = system: Methylomonas methanica CRL M4P NRRL B-11,205; test: as above; format: cell-based; conditions: sec. alcohol to methyl ketone
Source text: as §2

[23] = system: Methylobacter bovis CRL 19 NRRL B-11,217; test: as above; format: cell-based; conditions: sec. alcohol to methyl ketone
Source text: as §2

[24] = system: Methylosinus trichosporium CRL 15 NRRL B-11,202; test: as above; format: cell-based; conditions: sec. alcohol to methyl ketone
Source text: as §2

[25] = system: Kloeckera sp. Strain A2 (NRRLY-11,420); test: Oxidation of sec-alcohols to ketones by cell suspensions of yeasts; format: cell-based; conditions: sec-alcohol to methyl ketone
[26] = system: Methylobacter bovis (CRL M1Y) NRRL B-11,216; test: Oxidation by washed cell suspensions of methane-grown cells; format: cell-based; conditions: methane-grown cells; isopropanol to acetone, 2-butanol to 2-butanone
Description: The pH of the nutrient medium was adjusted to 7.0 by the addition of acid or base and 50 ml samples of the nutrient medium were charged into a plurality of 300 ml shaker flasks. The shaker flasks were inoculated with an inoculating loop of cells from an agar plate containing homogeneous colonies of the microorganisms on the plate (the purity of the isolates was confirmed by microscopic examination. The isolates had been maintained on agar plates under an atmosphere of methane and air having a 1:1 v/v gas ratio which had been transferred evey two weeks. The gaseous phase of the inoculated flasks was then replaced with a gas mixture comprised of methane and air having a ratio of 1:1 on a v/v basis. […]
The cells were harvested by centrifugation at 10,000×g. at 4° C. for 30 minutes. The cell pellet was washed twice with a 0.15 M phosphate buffer at a pH of 7.0 (containing 0.002 M MgCl2). The washed cells were then suspended in a 0.15 M phosphate buffer at pH 7.0.
A 0.5 ml sample of each washed cell suspension (2 mg cells) was put into 10 ml vials at 4° C. which were sealed with a rubber cap. The gaseous phase of the vials was removed with vacuum and then was replaced with a gas mixture of the oxidative substrate (e.g., methane) and oxygen at a 1:1 v/v ratio. The vials were then incubated at 30 ° C. on a rotary shaker at 300 rpm. Samples of product (3 μl) were withdrawn periodically with a microsyringe and the products were analyzed by gas chromatography (ionization flame detector column).
The newly discovered and isolated microorganism strains of the present invention were each grown aerobically in the presence of methane in the manner described above. The methane-grown microbial cells were then washed, recovered and put to use in oxidizing an oxidative substrate by the procedure described above except in the case of a liquid substrate 10 μl of the substrate were used.

[27] = system: cell extract of Hansenula polymorpha ATCC 26,012; test: Oxidation of secondary alcohols to methylketone by cell extracts of yeasts; format: biochemical; conditions: methanol-grown; cell extract + NAD^+; sec. alcohol to methyl ketone; gas chromatography

For `CC(C)O` [Isopropanol], the “Conversion Rate” value [1] was 4.8 μmoles/hr/mg Protein, the “Conversion Rate” value ([2]; growth substrate Ethanol) was 4.2 μmoles/hr/mg of protein and the “Conversion Rate” value ([2]; growth substrate Methanol) was 4.5 μmoles/hr/mg of protein. The “Conversion Rate” value ([2]; growth substrate Methylamine) was 4.3 μmoles/hr/mg of protein, the “Conversion Rate” value ([2]; growth substrate Methylformate) was 4.5 μmoles/hr/mg of protein and the “Conversion Rate” value ([2]; growth substrate Propylamine) was 3.2 μmoles/hr/mg of protein. The “Conversion Rate to Ketone, 2 hrs.” value [3] was 3 μmole/2 mg protein, the “Conversion Rate to Ketone, 20 hrs.” value [3] was 15 μmole/2 mg protein and the “Conversion Rate to Ketone, 2 hrs.” value [4] was 3 μmole/2 mg protein. For the same compound, the “Conversion Rate to Ketone, 2 hrs.” value [5] was 3 μmole/2 mg protein, the “Conversion Rate to Ketone, 2 hrs.” value [6] was 1 μmole/2 mg protein and the “Conversion Rate to Ketone, 20 hrs.” value [6] was 8 μmole/2 mg protein. The “Conversion Rate to Ketone, 2 hrs.” value [7] was 1 μmole/2 mg protein, the “Conversion Rate” value (Pichia sp. NRRL-Y-11328; growth substrate Ethanol) was 4.5 μmoles/hr/mg of protein and the “Conversion Rate” value (Pichia sp. NRRL-Y-11328; growth substrate Methanol) was 5.2 μmoles/hr/mg of protein. The “Conversion Rate” value (Pichia sp. NRRL-Y-11328; growth substrate Methylamine) was 4.2 μmoles/hr/mg of protein, the “Conversion Rate” value (Pichia sp. NRRL-Y-11328; growth substrate Methylformate) was 4.9 μmoles/hr/mg of protein and the “Conversion Rate” value (Pichia sp. NRRL-Y-11328; growth substrate Propylamine) was 3.2 μmoles/hr/mg of protein. The “relative percent rate of oxidation” value [8] was 85%, the “oxidation by the purified enzyme” value [9] was “catalyzed the oxidation” and the “Conversion Rate” value [10] was 5.5 μmoles/hr/mg Protein. The “Conversion Rate” value ([11]; growth substrate Ethanol) was 5.2 μmoles/hr/mg of protein, the “Conversion Rate” value ([11]; growth substrate Methanol) was 6.2 μmoles/hr/mg of protein and the “Conversion Rate” value ([11]; growth substrate Methylamine) was 5.0 μmoles/hr/mg of protein. For the same compound, the “Conversion Rate” value ([11]; growth substrate Methylformate) was 5.6 μmoles/hr/mg of protein, the “Conversion Rate” value ([11]; growth substrate Propylamine) was 4.2 μmoles/hr/mg of protein and the “Conversion Rate” value ([12]; growth substrate Ethanol) was 5.0 μmoles/hr/mg of protein. The “Conversion Rate” value ([12]; growth substrate Methanol) was 5.9 μmoles/hr/mg of protein, the “Conversion Rate” value ([12]; growth substrate Methylamine) was 5.2 μmoles/hr/mg of protein and the “Conversion Rate” value ([12]; growth substrate Methylformate) was 5.6 μmoles/hr/mg of protein. For the same compound, the “Conversion Rate” value ([12]; growth substrate Propylamine) was 4.1 μmoles/hr/mg of protein, the “Conversion Rate” value [13] was 4.5 μmoles/hr/mg Protein and the “Conversion Rate” value [14] was 4.5 μmoles/hr/mg Protein. For the same compound, the “Conversion Rates” value [15] was 2.0 μmoles/hr/mg protein, the “Conversion Rates” value [16] was 5.0 μmoles/hr/mg protein and the “Conversion Rates” value [17] was 1.0 μmoles/hr/mg protein. The “Conversion Rates” value [18] was 0.25 μmoles/hr/mg protein, the “Conversion Rates” value [19] was 0.72 μmoles/hr/mg protein and the “Conversion Rates” value [20] was 0.62 μmoles/hr/mg protein. The “Conversion Rates” value [21] was 0.67 μmoles/hr/mg protein, the “Conversion Rates” value [22] was 2.0 μmoles/hr/mg protein and the “Conversion Rates” value [23] was 0.40 μmoles/hr/mg protein. The “Conversion Rates” value [24] was 0.50 μmoles/hr/mg protein, the “Conversion Rate” value ([25]; growth substrate Ethanol) was 4.5 μmoles/hr/mg of protein and the “Conversion Rate” value ([25]; growth substrate Methanol) was 4.8 μmoles/hr/mg of protein. The “Conversion Rate” value ([25]; growth substrate Methylamine) was 4.0 μmoles/hr/mg of protein, the “Conversion Rate” value ([25]; growth substrate Methylformate) was 4.9 μmoles/hr/mg of protein and the “Conversion Rate” value ([25]; growth substrate Propylamine) was 4.0 μmoles/hr/mg of protein. For the same compound, the “Conversion Rate to Ketone, 2 hrs.” value [26] was 5 μmole/2 mg protein and the “Conversion Rate” value [27] was 4.8 μmoles/hr/mg Protein.
